The nature of the data set: solubility in water at room temperature. The format is physicochemical.

The compound `NC[C@H]1COc2cc(Cl)ccc2O1` [compound of formula (V-S), (2S)-6-chloro-2,3-dihydro-1,4-benzodioxin-2-methanamine] returned a solubility in water of 0.35 g/100 g water.

The values are drawn from patent US8895762B2, “Process for the preparation of sulfamide derivatives” (Janssen Pharmaceutica NV, priority 2011, dated 2014).
